Results on one compound are retold here after ChEMBL document CHEMBL1137525, “Additional level of information about complex interaction between non-nucleoside inhibitor and HIV-1 reverse transcriptase using biosensor-based thermodynamic analysis” (Bioorg Med Chem, 2007).

Test [1] concerns the target T1, Human immunodeficiency virus type 1 reverse transcriptase (Human immunodeficiency virus 1, UniProt Q72547, Y181C). Kind of test: Binding affinity to HIV1 reverse transcriptase Y181C mutant at 35 degC.
Test [2] concerns the target T1, Human immunodeficiency virus type 1 reverse transcriptase. The test can be described thus: Binding affinity to HIV1 reverse transcriptase Y181C mutant at 25 degC.
For test [3], the target named is T2, Human immunodeficiency virus type 1 reverse transcriptase (Human immunodeficiency virus 1, UniProt Q72547, K103N). The test can be described thus: Binding affinity to HIV1 reverse transcriptase K103N mutant at 25 degC.
The target of test [4] is T1, Human immunodeficiency virus type 1 reverse transcriptase. Kind of test: Binding affinity to HIV1 reverse transcriptase Y181C mutant at 5 degC.
For test [5], the target named is T2, Human immunodeficiency virus type 1 reverse transcriptase. Kind of test: Binding affinity to HIV1 reverse transcriptase K103N mutant at 15 degC.
The target in test [6] is T1, Human immunodeficiency virus type 1 reverse transcriptase. Kind of test: Binding affinity to HIV1 reverse transcriptase Y181C mutant at 15 degC.
Test [7] addresses T2, Human immunodeficiency virus type 1 reverse transcriptase. Kind of test: Binding affinity to HIV1 reverse transcriptase K103N mutant at 35 degC.
Test [8] has the same target. Kind of test: Binding affinity to HIV1 reverse transcriptase K103N mutant at 5 degC.

In the case of `CCC(=O)c1ccc(F)c([C@@H]2C[C@@H]2NC(=O)Nc2ccc(C#N)cn2)c1O`, the Kd in test [1] was found to be 2.89 nM; in test [2] it was 1.5 nM; in test [3] it was 4.91 nM; in test [4], 0.627 nM; in test [5], 0.997 nM; in test [6], 0.79 nM. The Kd in test [7] came to 3.49 nM; in test [8], 0.596 nM.

For orientation: Kd means the concentration at which binding is half-saturated. Higher therefore signals lower affinity.
